{"source": "patent US11022604B2", "about": "“Dock derived compound against laminin receptor (37 LR) and uses thereof” (Purdue Research Foundation, priority 2017, dated 2021)", "key": {"[1]": {"tested_on": "SH-SY5Y neuroblastoma cells", "assay": "Cell viability screen (CCK-8), SH-SY5Y cells", "format": "cell-based", "conditions": "Homo sapiens, CCK-8, 96 hours, read-out: IC50, inhibition of cell viability", "procedure": "(§1) FIGS. 2A-2H. Dose response curves. Does response curves for cell lines treated with 6, 10.5, 18.6, 32.4, 57.5 and 100 μM of compound (log) for 96 hours using % cell viability derived from CCK-8 absorbance readings at 450 nm (n=3, mean±SEM). A DMSO equivalent control (n=2±SEM) was also included for each cell line tested: Ea.hy.926 endothelial cells (Endo), LNCaP androgen dependent metastatic prostate cancer cells, TC2-Ras mouse prostate cancer cells, PC-3 androgen independent metastatic prostate cancer cells, and SH-SY5Y neruoblastoma cells. […]\n(§2) Cell Viability Screen. […] Cell viability was measured by using the cell counting kit-8 (CCK-8, Dojindo). […] CCK-8 absorbance was measured at 450 nm using a GloMax Multimode Reader (Promega). Readings were performed the day after seeding to normalize for variations in cell seeding and after 96 hours of compound treatment. After each reading, CCK-8 media was removed and replaced with media containing compound as described previously. […] As described previously, an initial baseline CCK-8 reading was performed at 24 hours post seeding to correct for variations in seeding density. First, 450 nm values for each well were subtracted from media only readings to correct for baseline absorbance. Then, the 96 hour readings were normalized to their respective 24 hour readings to control for seeding variation. […]"}, "[2]": {"tested_on": "PC-3 androgen independent metastatic prostate cancer cells", "assay": "Cell viability screen (CCK-8), PC-3 cells", "format": "cell-based", "conditions": "CCK-8, 96 hours, read-out: IC50, inhibition of cell viability", "procedure": "as §1, §2"}}, "note": "Like-named read-outs stand apart in the source and are kept apart here.", "data": [{"smiles": "O=C(c1cc(F)cc2c1OCOC2)N1CCN(C2c3ccccc3-c3ccccc32)CC1", "note": "[Compound C3, [4-(9h-fluoren-9-yl)piperazino](6-fluoro-4h-1,3-benzodioxin-8-yl)methanone]", "values": [{"measurement": "IC50", "setting": "[1]", "result": 18600, "unit": "nM"}, {"measurement": "IC50", "setting": "[2]", "result": "~1000", "unit": "nM"}, {"measurement": "IC50", "setting": "[2]; Homo sapiens, PC-3, 96 h", "result": "~800", "unit": "nM"}]}]}
